Assay results: US9113629B2, “4-amino-6-(4-substituted-phenyl)-picolinates and 6-amino-2-(4-substituted-phenyl)-pyrimidine-4-carboxylates and their use as herbicides” (DOW AGROSCIENCES LLC, priority 2013, dated 2015)
Where two headings read alike, the source gives them in different places.

Legend:
[1] = tested on: Key Grass and Sedge Weeds as well as Grass Crops; experiment: Post-emergent Test II herbicidal activity (Table 6); format: in vivo; conditions: post-emergence, 336 h; for pest or weed control at 70 g/ha: 70 g ai/ha; for pest or weed control at 140 g/ha: 140 g ai/ha
In short: (§1)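 Spray rates: a highest rate plus ½×, ¼×, ⅛×, 1/16×, all delivered at 187 L/ha to plants at the first–second true leaf stage. Readout is a visual percent injury score at 14 d, where 100 means complete kill.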

[2] = tested on: Key Broadleaf Weed and Crop Species; experiment: Post-emergent Test II herbicidal activity (Table 5); format: in vivo; conditions: post-emergence, 336 h, 14 days after application; for pest or weed control at 70 g/ha: application rate 70 g ai/ha; for pest or weed control at 140 g/ha: application rate 140 g ai/ha
In short: as §1

[3] = CYPES: yellow nutsedge (Cyperus esculentus), read-out: Visual Growth Reduction (%) 14 Days After Application, CYPES
[4] = DIGSA: crabgrass (Digitaria sanguinalis), read-out: Visual Growth Reduction (%) 14 Days After Application, DIGSA
[5] = ECHCG: barnyardgrass (Echinochloa crus-galli), read-out: Visual Growth Reduction (%) 14 Days After Application, ECHCG
[6] = ORYSA: rice (Oryza sativa), crop, read-out: Visual Growth Reduction (%) 14 Days After Application, ORYSA
[7] = SETFA: giant foxtail (Setaria faberi), read-out: Visual Growth Reduction (%) 14 Days After Application, SETFA
[8] = SORVU: grain sorghum (Sorghum vulgare), read-out: Visual Growth Reduction (%) 14 Days After Application, SORVU
[9] = TRZSS (wheat, Triticum aestivum), crop, read-out: Visual Growth Reduction (%) 14 Days After Application, TRZSS
[10] = ZEAMX: maize, corn (Zea mays), crop, read-out: Visual Growth Reduction (%) 14 Days After Application, ZEAMX
[11] = ABUTH: velvetleaf (Abutilon theophrasti), read-out: Visual Growth Reduction (%) 14 Days After Application, ABUTH
[12] = AMARE: redroot pigweed (Amaranthus retroflexus), read-out: Visual Growth Reduction (%) 14 Days After Application, AMARE
[13] = BRSNN: oilseed-rape, canola (Brassica napus), read-out: Visual Growth Reduction (%) 14 Days After Application, BRSNN
[14] = CHEAL: lambsquarters (Chenopodium album), read-out: Visual Growth Reduction (%) 14 Days After Application, CHEAL
[15] = EPHHL: wild poinsettia (Euphorbia heterophylla), read-out: Visual Growth Reduction (%) 14 Days After Application, EPHHL
[16] = HELAN: sunflower (Helianthus annuus), read-out: Visual Growth Reduction (%) 14 Days After Application, HELAN
[17] = VIOTR: wild pansy (Viola tricolor), read-out: Visual Growth Reduction (%) 14 Days After Application, VIOTR

| Compound | pest or weed control at 70 g/ha [1, 3] [%] | pest or weed control at 140 g/ha [1, 3] [%] | pest or weed control at 70 g/ha [1, 4] [%] | pest or weed control at 140 g/ha [1, 4] [%] | pest or weed control at 70 g/ha [1, 5] [%] | pest or weed control at 140 g/ha [1, 5] [%] | pest or weed control at 70 g/ha [1, 6] [%] | pest or weed control at 140 g/ha [1, 6] [%] | pest or weed control at 70 g/ha [1, 7] [%] | pest or weed control at 140 g/ha [1, 7] [%] | pest or weed control at 70 g/ha [1, 8] [%] | pest or weed control at 140 g/ha [1, 8] [%] | pest or weed control at 70 g/ha [1, 9] [%] | pest or weed control at 140 g/ha [1, 9] [%] | pest or weed control at 70 g/ha [1, 10] [%] | pest or weed control at 140 g/ha [1, 10] [%] | pest or weed control at 70 g/ha [2, 11] [%] | pest or weed control at 140 g/ha [2, 11] [%] | pest or weed control at 70 g/ha [2, 12] [%] | pest or weed control at 140 g/ha [2, 12] [%] | other results |
| --- | --- | --- | --- | --- | --- | --- | --- | --- | --- | --- | --- | --- | --- | --- | --- | --- | --- | --- | --- | --- | --- |
| COC(=O)c1nc(-c2ccc(OC(F)F)cc2)nc(N)c1OC [Compound 106, methyl 6-amino-2-(4-(difluoromethoxy)phenyl)-5-methoxypyrimidine-4-carboxylate] | 0 to 29 | 0 to 29 | 0 to 29 | 0 to 29 | 0 to 29 | 0 to 29 | 0 to 29 | 0 to 29 | 0 to 29 | 0 to 29 | 0 to 29 | 0 to 29 | 0 to 29 | 0 to 29 | 0 to 29 | 0 to 29 | 0 to 29 | 0 to 29 | 0 to 29 | 0 to 29 | melting point: 183 to 184 °C; pest or weed control at 70 g/ha [2, 13]: 0 to 29%; pest or weed control at 140 g/ha [2, 13]: 0 to 29%; pest or weed control at 70 g/ha [2, 14]: 0 to 29%; pest or weed control at 140 g/ha [2, 14]: 0 to 29%; pest or weed control at 70 g/ha [2, 15]: 0 to 29%; pest or weed control at 140 g/ha [2, 15]: 0 to 29%; pest or weed control at 70 g/ha [2, 16]: 0 to 29%; pest or weed control at 140 g/ha [2, 16]: 0 to 29%; pest or weed control at 70 g/ha [2, 17]: 0 to 29%; pest or weed control at 140 g/ha [2, 17]: 0 to 29% |
| C#Cc1ccc(-c2nc(C(=O)OC)c(Cl)c(N)c2F)cc1 [Compound 7, methyl 4-amino-3-chloro-6-(4-ethynylphenyl)-5-fluoropicolinate] | 75 to 84 | 85 to 94 | 75 to 84 | 85 to 94 | 75 to 84 | 95 to 100 | 0 to 29 | 0 to 29 | 60 to 74 | 95 to 100 | 85 to 94 | 85 to 94 | 30 to 44 | 45 to 59 | 95 to 100 | 95 to 100 | 95 to 100 | 95 to 100 | 95 to 100 | 95 to 100 | melting point: 127 to 130 °C; pest or weed control at 70 g/ha [2, 13]: 85 to 94%; pest or weed control at 140 g/ha [2, 13]: 85 to 94%; pest or weed control at 70 g/ha [2, 14]: 95 to 100%; pest or weed control at 140 g/ha [2, 14]: 95 to 100%; pest or weed control at 70 g/ha [2, 15]: 85 to 94%; pest or weed control at 140 g/ha [2, 15]: 95 to 100%; pest or weed control at 70 g/ha [2, 16]: 85 to 94%; pest or weed control at 140 g/ha [2, 16]: 95 to 100%; pest or weed control at 70 g/ha [2, 17]: 0 to 29%; pest or weed control at 140 g/ha [2, 17]: 0 to 29% |
| COC(=O)c1nc(-c2ccc(Br)c(F)c2)c(F)c(N)c1Cl [Compound 49] | 95 to 100 | 85 to 94 | 60 to 74 | 75 to 84 | 85 to 94 | 95 to 100 | 0 to 29 | 0 to 29 | 60 to 74 | 95 to 100 | 95 to 100 | 95 to 100 | 45 to 59 | 60 to 74 | 95 to 100 | 95 to 100 | 95 to 100 | 95 to 100 | 95 to 100 | 95 to 100 | pest or weed control at 70 g/ha [2, 13]: 95 to 100%; pest or weed control at 140 g/ha [2, 13]: 95 to 100%; pest or weed control at 70 g/ha [2, 14]: 95 to 100%; pest or weed control at 140 g/ha [2, 14]: 95 to 100%; pest or weed control at 70 g/ha [2, 16]: 95 to 100%; pest or weed control at 140 g/ha [2, 16]: 95 to 100%; pest or weed control at 70 g/ha [2, 17]: 95 to 100%; pest or weed control at 140 g/ha [2, 17]: 95 to 100% |
| Nc1c(F)c(-c2ccccc2)nc(C(=O)O)c1Cl [Compound 180] | 30 to 44 | 45 to 59 | 0 to 29 | 0 to 29 | 0 to 29 | 0 to 29 | 0 to 29 | 0 to 29 | 0 to 29 | 0 to 29 | 0 to 29 | 30 to 44 | 0 to 29 | 0 to 29 | 0 to 29 | 0 to 29 | 85 to 94 | 95 to 100 | 45 to 59 | 75 to 84 | pest or weed control at 70 g/ha [2, 13]: 85 to 94%; pest or weed control at 140 g/ha [2, 13]: 95 to 100%; pest or weed control at 70 g/ha [2, 14]: 95 to 100%; pest or weed control at 140 g/ha [2, 14]: 95 to 100%; pest or weed control at 70 g/ha [2, 15]: 60 to 74%; pest or weed control at 140 g/ha [2, 15]: 75 to 84%; pest or weed control at 70 g/ha [2, 16]: 85 to 94%; pest or weed control at 140 g/ha [2, 16]: 85 to 94%; pest or weed control at 70 g/ha [2, 17]: 0 to 29%; pest or weed control at 140 g/ha [2, 17]: 0 to 29% |
